Measured values: BindingDB's records for PubMed 7903385 (Creighton University, 1993)

Target: T1, Alpha-2A adrenergic receptor (Sus scrofa, UniProt P18871)
T1 sequence (P18871 whole entry): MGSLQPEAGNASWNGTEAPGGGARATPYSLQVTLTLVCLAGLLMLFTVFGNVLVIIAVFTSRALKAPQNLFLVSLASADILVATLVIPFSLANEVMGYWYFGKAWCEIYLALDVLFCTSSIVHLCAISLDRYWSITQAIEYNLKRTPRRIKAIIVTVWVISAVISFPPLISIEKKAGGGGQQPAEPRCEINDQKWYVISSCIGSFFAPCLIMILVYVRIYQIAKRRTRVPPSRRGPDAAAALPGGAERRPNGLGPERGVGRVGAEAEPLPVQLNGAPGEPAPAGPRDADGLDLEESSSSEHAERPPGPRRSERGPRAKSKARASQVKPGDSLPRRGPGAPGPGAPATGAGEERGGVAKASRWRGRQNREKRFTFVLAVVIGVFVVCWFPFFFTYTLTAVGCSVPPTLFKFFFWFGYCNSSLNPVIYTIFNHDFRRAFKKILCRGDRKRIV

`C=Cc1sc2ccc(Cl)c3c2c1CN(C)CC3` [SKF 104856] gave a Ki of 54.5 nM.
